# Patent EP0589039A1, “[…] DERIVATIVE AND PHARMACEUTICAL PREPARATION CONTAINING THE SAME” (Asahi Kasei Kogyo Kabushiki Kaisha, priority 1991, dated 1992)
# Where two headings read alike, the source gives them in different places.
# Key:
# [1] = test system: osteoporosis model rats; assay: Inhibition of decrease in bone density in ovariectomized osteoporosis model rats; type: in vivo, Fisher rats; conditions: 400 µg/kg orally once a day for 4 months
# Protocol: Effect of the compound of the present invention to inhibit decrease in the bone density was evaluated using osteoporosis model rats. […] The remaining 8 rats were subjected to sham operation and used as a control group (Group C). […] After completion of the administration, the left side femur of each rat was excised to measure its volume (V) and dry weight (W) to calculate a bone density (D) based on a formula, D = W/V [formula] . […]
# [2] = test system: human breast cancer cell line MCF-7; assay: Growth inhibition of human breast cancer cell MCF-7 (Methylene Blue staining); type: cell-based; conditions: read-out: Growth inhibition of MCF-7 (human breast cancer cells) (IC₅₀)
# Protocol: (Growth inhibition of human breast cancer cell MCF-7)
# Effect of the compound of the present invention on breast cancer were examined using a human breast cancer cell line MCF-7. Predetermined dilutions of each compound of the present invention were added to a 96 well microtiter plate purchased from Falcon, and the cancer cells were inoculated into each well with a inoculum size of 10³ cells per well (10⁴ cells in the case of 100 nM estrogen (E)). The thus prepared plate was supplied with RPMI 1640 medium which has been supplemented with 5% of fetal bovine serum and further with a predetermined amount of estrogen, and incubated at 37°C for 6 days (3 days in the case of 100 nM estrogen) in the presence of 5% CO₂. Thereafter, viable cells were fixed with glutaraldehyde and stained with Methylene Blue to measure absorbance at 665 nm.
# [3] = test system: human breast cancer cultured cell line ZR-75-1; assay: Growth inhibition of human breast cancer cultured cell line ZR-75-1 (Methylene Blue staining); type: cell-based; conditions: 120 h, ZR-75-1, 10⁻⁹ mole of estrogen, 5 days, read-out: IC₅₀
# Protocol: Effect of the triphenylalkene derivative of the present invention on breast cancer were examined using a human breast cancer cultured cell line ZR-75-1. Predetermined dilutions of each triphenylalkene derivative of the present invention were added to a 96 well microtiter plate purchased from Falcon, and the cancer cells were inoculated into each well with a inoculum size of 2 x 10³ cells per well. The thus prepared plate was supplied with RPMI 1640 medium which has been supplemented with 10% of fetal bovine serum and further with 10⁻⁹ mole of estrogen, and incubated at 37°C for 5 days in the presence of 5% CO₂. Thereafter, viable cells were fixed with glutaraldehyde, stained with Methylene Blue and then extracted with 0.33 N of hydrochloric acid to measure absorbance at 665 nm. […]
# [4] = MCF7, 144 h, 1 nM added amount of E (estrogen), 6 days
# [5] = MCF7, 144 h, 0.1 nM added amount of E (estrogen), 6 days
# [6] = MCF7, 72 h, 100 nM added amount of E (estrogen), 3 days, 10⁴ cells per well
SMILES,"IC50 [2, 4]",other results
"CCC(=C(c1ccc(O)cc1)c1ccc(OCC(O)CN(C)C)cc1)c1ccc2c(c1)OCO2 (stereo not drawn) [Compound 1, (E·Z)-1-[4-(3-dimethylamino-2-hydroxypropoxy)-phenyl]-1-(4-hydroxyphenyl)-2-(3,4-methylenedioxyphenyl)-1-butene]",–,"inhibition of decrease in the bone density caused by the ovariectomy ([1]; compared with Tamoxifen): significantly inhibited decrease in the bone density; Bone density ([1]; left femur, D = W/V, ovariectomized rats): 1.0312"
"CCC(=C(c1ccc(O)cc1)c1ccc(OCC(O)CN(CC)CC)cc1)c1ccc2c(c1)OCO2 (stereo not drawn) [Compound 2, (E·Z)-1-[4-(3-diethylamino-2-hydroxypropoxy)-phenyl]-1-(4-hydroxyphenyl)-2-(3,4-methylenedioxyphenyl)-1-butene]",60 nM,–
"CCC(=C(c1ccc(O)cc1)c1ccc(OCC(O)CN(C)CC)cc1)c1ccc2c(c1)OCO2 (stereo not drawn) [Compound 3, (E·Z)-1-[4-(3-ethylmethylamino-2-hydroxypropoxy)phenyl]-1-(4-hydroxyphenyl)-2-(3,4-methylenedioxyphenyl)-1-butene]",100 nM,–
"CCC(=C(c1ccc(O)cc1)c1ccc(OCC(O)CN(C)C2CCCCC2)cc1)c1ccc2c(c1)OCO2 (stereo not drawn) [Compound 4, (E·Z)-1-[4-(3-cyclohexylmethylamino-2-hydroxypropoxy)phenyl]-1-(4-hydroxyphenyl)-2-(3,4-methylenedioxyphenyl)-1-butene]",210 nM,–
"CCC(=C(c1ccc(O)cc1)c1ccc(OCC(O)CN(C)C)cc1)c1ccccc1 (stereo not drawn) [Compound 7, (E·Z)-1-[4-(3-dimethylamino-2-hydroxypropoxy)-phenyl]-1-(4-hydroxyphenyl)-2-phenyl-1-butene]",210 nM,–
"CCC(=C(c1ccc(O)cc1)c1ccc(OCC(O)CNC)cc1)c1ccc2c(c1)OCO2 (stereo not drawn) [Compound 10, (E·Z)-1-[4-(3-methylamino-2-hydroxypropoxy)-phenyl]-1-(4-hydroxyphenyl)-2-(3,4-,methylenedioxyphenyl)-1-butene]",500 nM,IC50 [3]: 870 nM
"CC/C(=C(\c1ccccc1)c1ccc(OCC(O)CNC2CCCCC2)cc1)c1ccccc1 (stereo not drawn) [Compound 12, (Z)-1-[4-(3-cyclohexylamino-2-hydroxypropoxy)-phenyl]-1,2-diphenyl-1-butene]",1200 nM,IC50 [3]: 1400 nM
"CC/C(=C(\c1ccccc1)c1ccc(OCC(O)CNC(C)C)cc1)c1ccccc1 (stereo not drawn) [Compound 14, (Z)-1-[4-(3-isopropylamino-2-hydroxypropoxy)-phenyl]-1,2-diphenyl-1-butene]",–,"IC50 [2, 5]: 410 nM"
"CCC(=C(c1ccc(OCC(CN(C)C)OC(C)=O)cc1)c1ccc(OC(C)=O)cc1)c1ccc2c(c1)OCO2 (stereo not drawn) [Compound 15, (E·Z)-1-[4-(3-dimethylamino-2-acetoxypropoxy)-phenyl]-1-(4-acetoxyphenyl)-2-(3,4-methylenedioxyphenyl)-1-butene]",310 nM,–
"CCC(=C(c1ccc(O)cc1)c1ccc(OCC(CN(C)C)OC(C)=O)cc1)c1ccc2c(c1)OCO2 (stereo not drawn) [Compound 16, (E·Z)-1-[4-(3-dimethylamino-2-acetoxypropoxy)-phenyl]-1-(4-hydroxyphenyl)-2-(3,4-methylenedioxyphenyl)-1-butene]",160 nM,–
"CCC(=C(c1ccc(O)cc1)c1ccc(OC(CN(C)C)CN(C)C)cc1)c1ccc2c(c1)OCO2 [Compound 18, (E·Z)-1-[4-(1,3-bisdimethylamino-2-propoxy)-phenyl]-1-(4-hydroxyphenyl)-2-(3,4-methylenedioxyphenyl)-1-butene]",430 nM,–
"CCC(=C(c1ccc(O)cc1)c1ccc(OCCN(C)C)cc1)c1ccc2c(c1)OCO2 [Compound 20, (E·Z)-1-[4-(2-dimethylaminoethoxy)phenyl]-1-(4-hydroxyphenyl)-2-(3,4-methylenedioxyphenyl)-1-butene]",190 nM,–
"CCC(=C(c1ccc(C=NOC)cc1)c1ccc(OCCN(C)C)cc1)c1ccccc1 [Compound 22, 2-[4-[1-(4-methoxyiminomethylphenyl)-2-phenyl-1-butenyl]phenoxy]-N,N-dimethylamine]",7100 nM,–
"CCC(=C(c1ccc(OCCN(C)C)cc1)c1cccc(C=NO)c1)c1ccccc1 [Compound 23, 2-[4-[1-(3-hydroxyiminomethylphenyl)-2-phenyl-1-butenyl]phenoxy]-N,N-dimethylamine]",6800 nM,–
CCC(=C(c1ccccc1)c1ccc(OCC(O)CN(C)C)cc1)c1ccccc1 (stereo not drawn) [Compound 30],3300 nM,–
CCC(=C(c1ccc(OCOC)cc1)c1ccc(OCC(O)CN(C)C)cc1)c1ccc2c(c1)OCO2 (stereo not drawn) [Compound 32],–,"IC50 [2, 6]: 3800 nM"
CCC(=C(c1ccccc1)c1ccc(OCC(O)CN(C)CC)cc1)c1ccc2c(c1)OCO2 (stereo not drawn) [Compound 33],–,"IC50 [2, 5]: 600 nM"
CCC(=C(c1ccccc1)c1ccc(OCC(O)CN(C)C)cc1)c1ccc2c(c1)OCO2 (stereo not drawn) [Compound 34],6300 nM,"IC50 [2, 6]: 10200 nM"
CCC(=C(c1ccccc1)c1ccc(OC(CN(CC)CC)CN(CC)CC)cc1)c1ccccc1 [Compound 36],1600 nM,–
CCC(=C(c1ccccc1)c1ccc(OCC(O)CNC2CCCCC2)cc1)c1ccc2c(c1)OCO2 (stereo not drawn) [Compound 38],–,"IC50 [2, 5]: 210 nM"
CCC(=C(c1ccccc1)c1ccc(OCC(O)CNC2CCCCC2)cc1)c1ccccc1 (stereo not drawn) [Compound 39],–,"IC50 [2, 6]: 5600 nM"
CCC(=C(c1ccccc1)c1ccc(OCC(O)CNC2CCCC2)cc1)c1ccccc1 (stereo not drawn) [Compound 40],–,"IC50 [2, 6]: 2700 nM"
CCC(=C(c1ccccc1)c1ccc(OCC(O)CNC2CCC2)cc1)c1ccccc1 (stereo not drawn) [Compound 41],–,"IC50 [2, 6]: 3400 nM"

# Continued, in another order:
"IC50 [2, 4]",SMILES,other results
1800 nM,"CC/C(=C(\c1ccccc1)c1ccc(OCC(O)CN(C)C)cc1)c1ccc2c(c1)OCO2 (stereo not drawn) [Compound 6, (Z)-1-[4-(3-dimethylamino-2-hydroxypropoxy)-phenyl]-1-phenyl-2-(3,4-methylenedioxyphenyl)-1-butene]",–
620 nM,"CCC(=C(c1ccc(O)cc1)c1ccc(OCC(O)CNC2CCCCC2)cc1)c1ccccc1 (stereo not drawn) [Compound 8, (E·Z)-1-[4-(3-cyclohexylamino-2-hydroxypropoxy)-phenyl]-1-(4-hydroxyphenyl)-2-phenyl-1-butene]",IC50 [3]: 1400 nM
460 nM,"CCC(=C(c1ccc(O)cc1)c1ccc(OCC(O)CNC2CCCCC2)cc1)c1ccc2c(c1)OCO2 (stereo not drawn) [Compound 9, (E·Z)-1-[4-(3-cyclohexylamino-2-hydroxypropoxy)-phenyl]-1-(4-hydroxyphenyl)-2-(3,4-,methylenedioxyphenyl)-1-butene]",IC50 [3]: 950 nM
50 nM,"CCNCC(O)COc1ccc(C(=C(CC)c2ccc3c(c2)OCO3)c2ccc(O)cc2)cc1 (stereo not drawn) [Compound 11, (E·Z)-1-[4-(3-ethylamino-2-hydroxypropoxy)-phenyl]-1-(4-hydroxyphenyl)-2-(3,4-methylenedioxyphenyl)-1-butene]",IC50 [3]: 1600 nM
5400 nM,"CCNCC(O)COc1ccc(/C(=C(/CC)c2ccccc2)c2ccccc2)cc1 (stereo not drawn) [Compound 13, (Z)-1-[4-(3-ethylamino-2-hydroxypropoxy)phenyl]-1,2-diphenyl-1-butene]",–
160 nM,"CCC(=C(c1ccc(O)cc1)c1ccc(OCCNC2CCCCC2)cc1)c1ccc2c(c1)OCO2 [Compound 19, (E·Z)-1-[4-(2-cyclohexylaminoethoxy)phenyl]-1-(4-hydroxyphenyl)-2-(3,4-methylenedioxyphenyl)-1-butene]",–
4600 nM,"CCC(=C(c1ccc(C=NO)cc1)c1ccc(OCCN(C)C)cc1)c1ccccc1 [Compound 21, 2-[4-[1-(4-hydroxyiminomethylphenyl)-2-phenyl-1-butenyl]phenoxy]-N,N-dimethylethylamine]",–
1900 nM,CCC(=C(c1ccccc1)c1ccc(OC(CN(C)C)CN(C)C)cc1)c1ccccc1 [Compound 35],–
60 nM,CCC(=C(c1ccc(O)cc1)c1ccc(OC(CN(CC)CC)CN(CC)CC)cc1)c1ccc2c(c1)OCO2 [Compound 37],–
